Earlier results in PubChem BioAssay AID1259409 (Chemical Carcinogenesis Research Information System (CCRIS), 2018).

Test system: rodent chemically induced tumor inhibition, incidence and multiplicity
Assay: CCRIS tumor inhibitor studies

For `C=C1CC[C@H]2[C@@]3(C)CCC[C@]2(C)[C@H]1CO[C@@H](C(=O)OC)[C@H](CC(=O)O)C(=O)OC[C@]1(C)CCC[C@]2(C)[C@@H](CO[C@@H](C(=O)OC)[C@H](CC(=O)O)C(=O)OC3)C(=C)CC[C@@H]12`, the “tumour outcome (control, treated, inhibition, significance)” value (Carcinogen: 7,12-DIMETHYLBENZ[A]ANTHRACENE, 57-97-6, Dose [Inhibitor]: 0, 1 MG 2/WK FOR 20 WK APPLIED 10 MIN PRIOR TO EACH PROMOTER DOSE (STUDY DURATION: 20 WK), Route [Inhibitor]: DERMAL, Species: MOUSE, Strain/Sex: CD-1/FEMALE, Target Tissue: Type of Lesion: SKIN: TUMOR, Dose [Carcinogen]: 100 UG ONCE, Promoter: OKADAIC ACID, 78111-17-8) is listed as 73%, 80%, -10%, not significant and the “tumour outcome (control, treated, inhibition, significance)” value (Carcinogen: 7,12-DIMETHYLBENZ[A]ANTHRACENE, 57-97-6, Dose [Inhibitor]: 0, 5 MG 2/WK FOR 20 WK APPLIED 10 MIN PRIOR TO EACH PROMOTER DOSE (STUDY DURATION: 20 WK), Route [Inhibitor]: DERMAL, Species: MOUSE, Strain/Sex: CD-1/FEMALE, Target Tissue: Type of Lesion: SKIN: TUMOR, Dose [Carcinogen]: 100 UG ONCE, Promoter: OKADAIC ACID, 78111-17-8) is listed as 73%, 93%, -27%, not significant.
For `CCCCCCCCCCCC(=O)OCC(COC(=O)CCCCCCCCCCC)OC(=O)CCCCCCCCCCC`, the “tumour outcome (control, treated, inhibition, significance)” value (Carcinogen: DIMETHYLBENZANTHRACENE, 57-97-6, Dose [Inhibitor]: APPLIED 3 MIN POST EACH PROMOTER DOSE 3/WK FOR 20 WK BEGINNING 3 D POST CARCINOGEN DOSE (STUDY DURATION: 20 WK), Route [Inhibitor]: DERMAL, Species: MOUSE, Strain/Sex: SWISS/?, Target Tissue: Type of Lesion: SKIN: TUMOR, Dose [Carcinogen]: 250 UG/0.25 ML ONCE, Promoter: CROTON OIL, 8001-28-3) is listed as 100%, 0%, 100%, not calculated.
In the case of `CC(C)(C)N=C=O`, the “tumour outcome (control, treated, inhibition, significance)” value (Carcinogen: 7,12-DIMETHYLBENZ(A)ANTHRACENE, 57-97-6, Dose [Inhibitor]: 0.013 MMOL/G IN DIET BEGINNING 1 WK AFTER CARCINOGEN ADMINISTRATION (STUDY DURATION: 23 WK), Route [Inhibitor]: ORAL, Species: RAT, Strain/Sex: SPRAGUE-DAWLEY/FEMALE, Target Tissue: Type of Lesion: MAMMARY GLAND: TUMOR, Dose [Carcinogen]: 12 MG DMBA IN 1.0 ML OLIVE OIL ONCE, Promoter: NONE USED) is given as 100%, 50%, 50%, p<0.001.
In the case of `Nc1c(Br)cc(Br)cc1CNC1CCC(O)CC1` (centres undefined), the “tumour outcome (control, treated, inhibition, significance)” value (Carcinogen: N-METHYL-N'-NITRO-N-NITROSOGUANIDINE [70-25-7], Dose [Inhibitor]: 0, 25 MG/KG BW 1X/2 D FOR 26 WK BEGINNING 1 WK POST LAST CARCINOGEN DOSE (STUDY DURATION: 52 WK), Route [Inhibitor]: SUBCUTANEOUS, Species: RAT, Strain/Sex: WISTAR/MALE, Target Tissue: Type of Lesion: STOMACH: TUMOR, Dose [Carcinogen]: 25 UG/ML IN DRINKING WATER FOR 25 WK (STUDY DURATION: 52 WK), Promoter: AMMONIUM ACETATE [631-61-8], SODIUM HYPOCLORITE [7681-52-9]) is given as 17/20 (85%), 6/19 (32%), 62%, p<0.01.
In the case of `CC(O)CCC(=O)c1cccs1` (centres undefined), the “tumour outcome (control, treated, inhibition, significance)” value (Carcinogen: 4-(METHYLNITROSAMINO)-1-(3-PYRIDYL)-1-BUTANONE, 64091-91-4, Dose [Inhibitor]: 0, 25 UMOL IN 0.1 ML CORN OIL ONCE 2 HR PRIOR TO CARCINOGEN DOSE (STUDY DURATION: 16 WK), Route [Inhibitor]: GAVAGE, Species: MOUSE, Strain/Sex: STRAIN-A/FEMALE, Target Tissue: Type of Lesion: LUNG: ADENOMA, Dose [Carcinogen]: 10 UMOL IN 0.1 ML SALINE ONCE, Promoter: NONE USED) is given as 100%, 100%, 0%, not significant.
In the case of `COC(=O)c1cc(O)c(O)c(O)c1`, the “tumour outcome (control, treated, inhibition, significance)” value (Carcinogen: 7,12-DIMETHYLBENZ[A]ANTHRACENE, 57-97-6, Dose [Inhibitor]: 0, 20 UMOL IN 0.4 ML ACETONE 20 MIN PRIOR TO EACH PROMOTER DOSE (STUDY DURATION: 47 WK), Route [Inhibitor]: DERMAL, Species: MOUSE, Strain/Sex: CF-1/FEMALE, Target Tissue: Type of Lesion: SKIN: CARCINOMA, Dose [Carcinogen]: 100 NMOL IN 0.2 ML ACETONE ONCE) is listed as 67%, 24%, 64%, not calculated and the “tumour outcome (control, treated, inhibition, significance)” value (Carcinogen: 7,12-DIMETHYLBENZ[A]ANTHRACENE, 57-97-6, Dose [Inhibitor]: 0, 20 UMOL IN 0.4 ML ACETONE 20 MIN PRIOR TO EACH PROMOTER DOSE (STUDY DURATION: 47 WK), Route [Inhibitor]: DERMAL, Species: MOUSE, Strain/Sex: CF-1/FEMALE, Target Tissue: Type of Lesion: SKIN: PAPILLOMA, Dose [Carcinogen]: 100 NMOL IN 0.2 ML ACETONE ONCE) is listed as 94%, 84%, 11%, p<0.025.
For `[K+]`, the outcome (Carcinogen: N-METHYL-N-NITROSOUREA [684-93-5], Dose [Inhibitor]: 0.05% IN DRINKING WATER, 2 WKS BEFORE CARCINOGEN AND FOR 26 WKS AFTER, Route [Inhibitor]: DRINKING WATER, Species: RAT, Strain/Sex: SPRAGUE-DAWLEY/FEMALE, Target Tissue: Type of Lesion: MAMMARY GLAND: CARCINOMA, Dose [Carcinogen]: 50 MG/KG BW ONCE AT 7 WKS OF AGE (IN SALINE SOLUTION)) is given as 8/11 (73%) vs 10/11 (94%) at 16 wks.
